Laboratory results published in the kinase profiling compilation of Christmann-Franck et al. (2016).

What was measured:
Test in all cases: KINOMEscan competition binding
Conditions in all cases: compound 10.0 µM
ACVRL1 (human) = ACVRL1 (human) (UniProt P37023)
ANKK1 (human) = ANKK1 (human) (UniProt Q8NFD2)
AURKA (human) = AURKA (human) (UniProt O14965)
BMPR1A (human) = BMPR1A (human) (UniProt P36894)
CDC42BPB (human) = CDC42BPB (human) (UniProt Q9Y5S2)
CDKL1 (human) = CDKL1 (human) (UniProt Q00532)
CHEK1 (human) = CHEK1 (human) (UniProt O14757)
CHEK1 (human), sequence (O14757 whole entry, looked up): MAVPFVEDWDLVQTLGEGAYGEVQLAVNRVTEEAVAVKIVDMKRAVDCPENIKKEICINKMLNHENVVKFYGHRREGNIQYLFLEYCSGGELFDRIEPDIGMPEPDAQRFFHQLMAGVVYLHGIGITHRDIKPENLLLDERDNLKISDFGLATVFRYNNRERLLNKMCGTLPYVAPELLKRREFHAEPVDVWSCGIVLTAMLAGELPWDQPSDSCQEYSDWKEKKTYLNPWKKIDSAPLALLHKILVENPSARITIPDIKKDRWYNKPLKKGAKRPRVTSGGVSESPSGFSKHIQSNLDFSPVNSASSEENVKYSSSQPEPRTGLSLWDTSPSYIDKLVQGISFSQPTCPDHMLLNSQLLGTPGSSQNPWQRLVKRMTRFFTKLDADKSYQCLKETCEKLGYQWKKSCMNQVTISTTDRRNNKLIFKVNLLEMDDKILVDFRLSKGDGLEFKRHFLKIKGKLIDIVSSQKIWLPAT

CLK2 (human) = CLK2 (human) (UniProt P49760)
CRK2 (P.falciparum) = CRK2 (P.falciparum) (UniProt P61075)
CSNK1D (human) = CSNK1D (human) (UniProt P48730)
DCLK2 (human) = DCLK2 (human) (UniProt Q8N568)
[1] = test system: EGFR (human), P00533 [747-751 del / S ins]
[2] = test system: EGFR (human), P00533 [G719C]
[3] = test system: EGFR (human), P00533 [L861Q]
EPHA4 (human) = EPHA4 (human) (UniProt P54764)
EPHA4 (human), sequence (P54764 whole entry, looked up): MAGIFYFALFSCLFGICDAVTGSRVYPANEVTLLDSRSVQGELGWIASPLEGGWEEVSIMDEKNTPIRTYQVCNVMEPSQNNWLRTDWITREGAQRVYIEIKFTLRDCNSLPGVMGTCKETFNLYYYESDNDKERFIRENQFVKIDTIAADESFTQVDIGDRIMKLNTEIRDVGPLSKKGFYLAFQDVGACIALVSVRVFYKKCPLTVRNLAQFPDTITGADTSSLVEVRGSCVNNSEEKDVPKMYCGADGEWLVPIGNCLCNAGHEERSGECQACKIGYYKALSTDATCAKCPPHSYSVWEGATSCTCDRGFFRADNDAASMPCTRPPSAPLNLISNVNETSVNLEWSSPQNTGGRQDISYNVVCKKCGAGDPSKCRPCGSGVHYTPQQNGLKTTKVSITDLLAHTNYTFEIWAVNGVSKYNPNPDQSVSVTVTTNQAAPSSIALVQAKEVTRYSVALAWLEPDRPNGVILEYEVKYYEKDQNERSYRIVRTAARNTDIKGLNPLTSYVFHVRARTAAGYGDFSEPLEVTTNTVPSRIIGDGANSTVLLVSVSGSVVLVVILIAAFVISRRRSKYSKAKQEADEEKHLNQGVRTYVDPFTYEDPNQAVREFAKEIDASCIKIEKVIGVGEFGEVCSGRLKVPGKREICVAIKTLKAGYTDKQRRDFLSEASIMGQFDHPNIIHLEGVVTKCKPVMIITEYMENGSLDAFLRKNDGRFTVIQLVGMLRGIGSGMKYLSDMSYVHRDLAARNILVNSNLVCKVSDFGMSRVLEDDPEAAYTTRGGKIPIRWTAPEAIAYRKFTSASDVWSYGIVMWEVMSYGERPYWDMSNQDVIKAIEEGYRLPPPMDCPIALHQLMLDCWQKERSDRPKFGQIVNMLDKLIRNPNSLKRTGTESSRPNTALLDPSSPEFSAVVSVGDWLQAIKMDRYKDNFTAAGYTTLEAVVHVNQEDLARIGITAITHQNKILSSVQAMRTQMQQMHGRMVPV

ERBB3 (human) = ERBB3 (human) (UniProt P21860)
FYN (human) = FYN (human) (UniProt P06241)
HIPK3 (human) = HIPK3 (human) (UniProt Q9H422)
IGF1R (human) = IGF1R (human) (UniProt P08069)
IGF1R (human), sequence (P08069 whole entry, looked up): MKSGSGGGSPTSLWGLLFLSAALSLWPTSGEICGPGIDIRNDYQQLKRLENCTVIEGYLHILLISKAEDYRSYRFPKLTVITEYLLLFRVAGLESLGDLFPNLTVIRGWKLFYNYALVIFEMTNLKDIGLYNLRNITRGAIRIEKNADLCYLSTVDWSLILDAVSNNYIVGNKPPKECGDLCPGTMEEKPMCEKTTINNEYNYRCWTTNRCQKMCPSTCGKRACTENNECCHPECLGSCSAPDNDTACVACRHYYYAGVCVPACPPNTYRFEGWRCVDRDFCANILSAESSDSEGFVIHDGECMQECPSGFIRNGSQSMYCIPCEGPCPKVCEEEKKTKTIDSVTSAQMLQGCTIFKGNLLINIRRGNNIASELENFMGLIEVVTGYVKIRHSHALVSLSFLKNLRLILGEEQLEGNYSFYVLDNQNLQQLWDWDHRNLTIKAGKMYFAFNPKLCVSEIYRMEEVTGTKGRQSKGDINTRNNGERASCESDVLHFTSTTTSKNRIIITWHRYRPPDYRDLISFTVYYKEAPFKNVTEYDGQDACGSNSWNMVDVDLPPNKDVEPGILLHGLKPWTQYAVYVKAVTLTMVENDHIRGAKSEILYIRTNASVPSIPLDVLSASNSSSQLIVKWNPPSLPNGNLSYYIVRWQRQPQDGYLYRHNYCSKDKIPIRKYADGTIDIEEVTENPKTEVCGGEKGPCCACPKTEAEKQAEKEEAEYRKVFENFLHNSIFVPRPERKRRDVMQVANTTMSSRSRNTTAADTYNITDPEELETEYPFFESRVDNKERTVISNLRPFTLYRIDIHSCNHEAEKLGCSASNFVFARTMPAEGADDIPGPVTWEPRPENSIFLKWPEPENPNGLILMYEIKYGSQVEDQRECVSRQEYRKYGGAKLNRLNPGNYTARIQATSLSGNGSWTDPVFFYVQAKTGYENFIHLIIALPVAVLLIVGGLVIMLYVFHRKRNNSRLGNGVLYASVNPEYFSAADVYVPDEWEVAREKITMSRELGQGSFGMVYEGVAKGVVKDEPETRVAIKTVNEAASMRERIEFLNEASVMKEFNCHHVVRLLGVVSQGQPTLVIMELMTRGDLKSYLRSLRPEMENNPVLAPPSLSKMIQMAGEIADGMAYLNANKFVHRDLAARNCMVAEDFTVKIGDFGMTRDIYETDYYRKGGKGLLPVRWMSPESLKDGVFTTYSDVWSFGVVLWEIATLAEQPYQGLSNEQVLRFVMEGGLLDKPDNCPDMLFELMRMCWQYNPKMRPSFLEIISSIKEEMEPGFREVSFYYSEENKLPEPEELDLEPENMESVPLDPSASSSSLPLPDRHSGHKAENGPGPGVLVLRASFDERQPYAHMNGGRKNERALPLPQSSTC

[4] = target: JAK1 JH2 pseudokinase (human) (UniProt P23458)
[5] = test system: KIT (human), P10721 [L576P]
[6] = test system: KIT (human), P10721 [V559D]
MAPK13 (human) = MAPK13 (human) (UniProt O15264)
[7] = test system: MET (human), P08581 [M1250T]
MKNK1 (human) = MKNK1 (human) (UniProt Q9BUB5)
NEK4 (human) = NEK4 (human) (UniProt P51957)
NEK5 (human) = NEK5 (human) (UniProt Q6P3R8)
NEK7 (human) = NEK7 (human) (UniProt Q8TDX7)
PAK1 (human) = PAK1 (human) (UniProt Q13153)
PIP4K2B (human) = PIP4K2B (human) (UniProt P78356)
PIP4K2C (human) = PIP4K2C (human) (UniProt Q8TBX8)
PIP4K2C (human), sequence (Q8TBX8 whole entry, looked up): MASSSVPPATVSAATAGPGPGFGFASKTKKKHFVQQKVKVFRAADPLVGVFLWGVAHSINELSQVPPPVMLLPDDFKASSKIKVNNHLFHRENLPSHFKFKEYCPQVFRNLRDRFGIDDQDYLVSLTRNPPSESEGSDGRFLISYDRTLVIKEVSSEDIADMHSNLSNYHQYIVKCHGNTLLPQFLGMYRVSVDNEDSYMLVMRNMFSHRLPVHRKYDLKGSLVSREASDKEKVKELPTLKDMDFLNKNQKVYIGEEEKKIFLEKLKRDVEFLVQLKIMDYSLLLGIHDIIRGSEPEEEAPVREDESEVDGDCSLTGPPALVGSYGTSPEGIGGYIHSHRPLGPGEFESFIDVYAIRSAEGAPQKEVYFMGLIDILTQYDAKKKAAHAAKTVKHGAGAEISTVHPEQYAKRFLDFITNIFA

PLK3 (human) = PLK3 (human) (UniProt Q9H4B4)
PRKCE (human) = PRKCE (human) (UniProt Q02156)
PRKD2 (human) = PRKD2 (human) (UniProt Q9BZL6)
RPS6KA3 KD1 (human) = RPS6KA3 KD1 (human) (UniProt P51812)
RPS6KA4 KD1 (human) = RPS6KA4 KD1 (human) (UniProt O75676)
SGK110 (human) = SGK110 (human) (UniProt P0C264)
STK17B (human) = STK17B (human) (UniProt O94768)
STK17B (human), sequence (O94768 whole entry, looked up): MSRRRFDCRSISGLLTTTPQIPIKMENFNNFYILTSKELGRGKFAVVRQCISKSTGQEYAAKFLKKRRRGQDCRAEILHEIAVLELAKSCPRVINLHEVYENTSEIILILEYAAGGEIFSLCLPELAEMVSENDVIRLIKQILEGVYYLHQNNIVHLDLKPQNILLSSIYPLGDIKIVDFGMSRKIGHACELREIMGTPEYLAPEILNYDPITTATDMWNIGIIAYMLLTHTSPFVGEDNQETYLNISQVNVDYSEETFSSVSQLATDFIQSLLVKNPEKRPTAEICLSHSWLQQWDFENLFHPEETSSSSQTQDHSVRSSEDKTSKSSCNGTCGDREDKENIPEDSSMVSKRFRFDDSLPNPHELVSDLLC

STK3 (human) = STK3 (human) (UniProt Q13188)
STK36 (human) = STK36 (human) (UniProt Q9NRP7)
TIE1 (human) = TIE1 (human) (UniProt P35590)
ULK3 (human) = ULK3 (human) (UniProt Q6PHR2)
ULK3 (human), sequence (Q6PHR2 whole entry, looked up): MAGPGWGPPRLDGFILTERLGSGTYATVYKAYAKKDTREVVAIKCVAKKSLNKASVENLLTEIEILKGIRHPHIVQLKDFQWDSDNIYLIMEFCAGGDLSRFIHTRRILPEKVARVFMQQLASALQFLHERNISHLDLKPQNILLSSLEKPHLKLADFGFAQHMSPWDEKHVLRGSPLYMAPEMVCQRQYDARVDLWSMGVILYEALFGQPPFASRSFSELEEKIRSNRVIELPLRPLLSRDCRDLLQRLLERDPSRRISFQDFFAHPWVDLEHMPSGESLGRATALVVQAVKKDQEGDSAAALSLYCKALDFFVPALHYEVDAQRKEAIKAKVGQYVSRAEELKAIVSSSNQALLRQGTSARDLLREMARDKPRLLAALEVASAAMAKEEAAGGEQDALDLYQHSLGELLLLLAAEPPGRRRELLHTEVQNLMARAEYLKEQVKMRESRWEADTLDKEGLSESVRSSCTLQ

BMPR1A (human), sequence (P36894 whole entry, looked up): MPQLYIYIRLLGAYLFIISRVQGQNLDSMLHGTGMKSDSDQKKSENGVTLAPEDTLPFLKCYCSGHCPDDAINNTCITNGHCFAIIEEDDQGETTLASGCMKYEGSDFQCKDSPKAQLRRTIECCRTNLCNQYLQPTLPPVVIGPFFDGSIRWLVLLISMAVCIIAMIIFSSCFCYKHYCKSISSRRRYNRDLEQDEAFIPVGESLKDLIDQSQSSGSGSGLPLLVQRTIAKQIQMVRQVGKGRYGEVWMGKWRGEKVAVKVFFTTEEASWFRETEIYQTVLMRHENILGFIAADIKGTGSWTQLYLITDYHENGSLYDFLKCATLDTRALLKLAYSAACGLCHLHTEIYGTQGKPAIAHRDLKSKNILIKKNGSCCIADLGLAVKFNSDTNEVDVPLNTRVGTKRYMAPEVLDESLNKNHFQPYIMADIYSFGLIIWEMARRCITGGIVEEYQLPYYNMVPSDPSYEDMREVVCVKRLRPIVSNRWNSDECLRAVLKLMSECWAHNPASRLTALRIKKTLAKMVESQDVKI
AURKA (human), sequence (O14965 whole entry, looked up): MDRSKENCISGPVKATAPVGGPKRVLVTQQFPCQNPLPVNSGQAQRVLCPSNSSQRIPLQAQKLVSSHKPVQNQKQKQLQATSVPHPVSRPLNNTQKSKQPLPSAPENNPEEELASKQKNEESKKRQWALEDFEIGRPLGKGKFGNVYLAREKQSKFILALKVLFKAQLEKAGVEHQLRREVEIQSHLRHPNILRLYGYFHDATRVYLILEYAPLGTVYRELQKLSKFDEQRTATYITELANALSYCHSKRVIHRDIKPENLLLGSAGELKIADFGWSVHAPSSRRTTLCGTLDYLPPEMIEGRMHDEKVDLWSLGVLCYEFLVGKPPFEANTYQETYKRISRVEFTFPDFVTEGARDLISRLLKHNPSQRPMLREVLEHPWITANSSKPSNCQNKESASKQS

SMILES: Cc1cc([C@@H](C)Nc2ccccc2C(=O)O)c2nc(N3CCOCC3)cc(=O)n2c1
- kinase still bound, per cent of control (ACVRL1 (human)): 100%
- kinase still bound, per cent of control (ANKK1 (human)): 100%
- kinase still bound, per cent of control (AURKA (human)): 75%
- kinase still bound, per cent of control (BMPR1A (human)): 79%
- kinase still bound, per cent of control (CDC42BPB (human)): 100%
- kinase still bound, per cent of control (CDKL1 (human)): 100%
- kinase still bound, per cent of control (CHEK1 (human)): 64%
- kinase still bound, per cent of control (CLK2 (human)): 100%
- kinase still bound, per cent of control (CRK2 (P.falciparum)): 92%
- kinase still bound, per cent of control (CSNK1D (human)): 57%
- kinase still bound, per cent of control (DCLK2 (human)): 100%
- kinase still bound, per cent of control [1]: 68%
- kinase still bound, per cent of control [2]: 100%
- kinase still bound, per cent of control [3]: 76%
- kinase still bound, per cent of control (EPHA4 (human)): 91%
- kinase still bound, per cent of control (ERBB3 (human)): 100%
- kinase still bound, per cent of control (FYN (human)): 41%
- kinase still bound, per cent of control (HIPK3 (human)): 68%
- kinase still bound, per cent of control (IGF1R (human)): 100%
- kinase still bound, per cent of control [4]: 100%
- kinase still bound, per cent of control [5]: 90%
- kinase still bound, per cent of control [6]: 93%
- kinase still bound, per cent of control (MAPK13 (human)): 100%
- kinase still bound, per cent of control [7]: 67%
- kinase still bound, per cent of control (MKNK1 (human)): 31%
- kinase still bound, per cent of control (NEK4 (human)): 94%
- kinase still bound, per cent of control (NEK5 (human)): 100%
- kinase still bound, per cent of control (NEK7 (human)): 98%
- kinase still bound, per cent of control (PAK1 (human)): 97%
- kinase still bound, per cent of control (PIP4K2B (human)): 84%
- kinase still bound, per cent of control (PIP4K2C (human)): 94%
- kinase still bound, per cent of control (PLK3 (human)): 94%
- kinase still bound, per cent of control (PRKCE (human)): 100%
- kinase still bound, per cent of control (PRKD2 (human)): 97%
- kinase still bound, per cent of control (RPS6KA3 KD1 (human)): 100%
- kinase still bound, per cent of control (RPS6KA4 KD1 (human)): 93%
- kinase still bound, per cent of control (SGK110 (human)): 68%
- kinase still bound, per cent of control (STK17B (human)): 100%
- kinase still bound, per cent of control (STK3 (human)): 97%
- kinase still bound, per cent of control (STK36 (human)): 82%
- kinase still bound, per cent of control (TIE1 (human)): 100%
- kinase still bound, per cent of control (ULK3 (human)): 100%
